From patent US8598374B2, “GPR120 receptor agonists and uses thereof” (Metabolex, Inc, priority 2008, dated 2013)
One block for each compound: values may come before it.

Biological target: T1, human GPR120 (Homo sapiens, UniProt Q5NUL3)
T1 construct: Flag (DYKDDDDK) (N); host or cells: HEK293 cells co-expressing Gqi5
T1 sequence (Q5NUL3 1-361): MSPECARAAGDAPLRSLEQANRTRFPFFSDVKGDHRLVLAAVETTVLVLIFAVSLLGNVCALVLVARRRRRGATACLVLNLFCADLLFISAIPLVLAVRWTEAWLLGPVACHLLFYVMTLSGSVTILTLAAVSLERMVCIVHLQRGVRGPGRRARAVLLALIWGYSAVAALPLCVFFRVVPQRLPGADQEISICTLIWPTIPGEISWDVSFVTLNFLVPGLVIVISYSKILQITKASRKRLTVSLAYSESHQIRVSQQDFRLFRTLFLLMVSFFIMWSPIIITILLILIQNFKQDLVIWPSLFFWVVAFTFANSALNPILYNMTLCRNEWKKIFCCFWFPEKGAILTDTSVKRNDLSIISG
Assay: Intracellular Ca2+ assay (FLIPR Calcium 4, Flexstation) in human GPR120 stable cell line
Type: cell-based
Settings: % activity at 2.5 μM compared to the maximal activity of the compound of Example 25 at 2.5 μM; HEK293 cells co-expressing Gqi5
Method in brief: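 HEK293 cells co-expressing Gqi5 and stably expressing Flag-tagged human GPR120 were seeded at 70,000 cells per well in poly-D-lysine coated 96 well plates and loaded with FLIPR Calcium 4 dye for 50 minutes at 37° C. On a Flexstation, compound-induced fluorescence (excitation 485 nm, emission 525) was recorded for 90 seconds. Percent activity was expressed against a reference agonist's maximal activity at 2.5 μM, set as 100%.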

SMILES: CCc1cc(OCc2cc(F)cc3c2OC(C)(C)C3)ccc1CCC(=O)O [Example 134, 3-(2-ethyl-4-((5-fluoro-2,2-dimethyl-2,3-dihydrobenzofuran-7-yl)methoxy)phenyl)propanoic acid]
% Activity (Ex. 25 Reference Compound): 151.44%

SMILES: CC1(C)Cc2cc(F)cc(COc3ccc(CCC(=O)O)c(OC(F)(F)F)c3)c2O1 [Example 136, 3-(4-((5-fluoro-2,2-dimethyl-2,3-dihydrobenzofuran-7-yl)methoxy)-2-(trifluoromethoxy)phenyl)propanoic acid]
% Activity (Ex. 25 Reference Compound): 140.51%

SMILES: CCc1cc(OCc2cccc3c2CC(C)(C)O3)ccc1CCC(=O)O [Example 140, 3-(4-((2,2-dimethyl-2,3-dihydrobenzofuran-4-yl)methoxy)-2-ethylphenyl)propanoic acid]
% Activity (Ex. 25 Reference Compound): 146.18%

SMILES: C[C@H](Cc1ccc(OCc2cc(Cl)cc3c2OC(C)(C)C3)c(F)c1)C(=O)O [Example 141, (R)-3-(4-((5-chloro-2,2-dimethyl-2,3-dihydrobenzofuran-7-yl)methoxy)-3-fluorophenyl)-2-methylpropanoic acid]
% Activity (Ex. 25 Reference Compound): 143.3%

SMILES: C[C@H](Cc1ccc(OCc2cc(Cl)cc3c2OC(C)(C)C3)c(C(F)(F)F)c1)C(=O)O [Example 143, (R)-3-(4-((5-chloro-2,2-dimethyl-2,3-dihydrobenzofuran-7-yl)methoxy)-3-(trifluoromethyl)phenyl)-2-methylpropanoic acid]
% Activity (Ex. 25 Reference Compound): 90.56%

SMILES: [2H]C1([2H])c2cc(F)cc(COc3ccc(CC(C)C(=O)O)cc3)c2OC1(C)C (stereo not drawn) [Example 145, 3-(4-((3,3-dideuterio-5-fluoro-2,2-dimethyl-2,3-dihydrobenzofuran-7-yl)methoxy)phenyl)-2-methylpropanoic acid]
% Activity (Ex. 25 Reference Compound): 143.69%

SMILES: [2H]C1([2H])c2cc(Cl)cc(COc3ccc(CC(C)C(=O)O)cc3F)c2OC1(C)C (stereo not drawn) [Example 146, 3-(4-((3,3-dideuterio-5-chloro-2,2-dimethyl-2,3-dihydrobenzofuran-7-yl)methoxy)-3-fluorophenyl)-2-methylpropanoic acid]
% Activity (Ex. 25 Reference Compound): 140.72%

SMILES: [2H]C1([2H])c2cc(Cl)cc(COc3ccc(CC(C)C(=O)O)cc3C(F)(F)F)c2OC1(C)C (stereo not drawn) [Example 147, 3-(4-((3,3-dideuterio-5-chloro-2,2-dimethyl-2,3-dihydrobenzofuran-7-yl)methoxy)-3-(trifluoromethyl)phenyl)-2-methylpropanoic acid]
% Activity (Ex. 25 Reference Compound): 138.65%

SMILES: CC(Cc1ccc(OCc2cc(Cl)cc3c2OCC3(C)C)cc1)C(=O)O (stereo not drawn) [Example 148, 3-(4-((5-chloro-3,3-dimethyl-2,3-dihydrobenzofuran-7-yl)methoxy)phenyl)-2-methylpropanoic acid]
% Activity (Ex. 25 Reference Compound): 113.89%

SMILES: Cc1cc2cccc(COc3c(F)cc(CC(C)C(=O)O)cc3F)c2s1 (stereo not drawn) [Example 151, 3-(3,5-difluoro-4-((2-methylbenzo[b]thiophen-7-yl)methoxy)phenyl)-2-methylpropanoic acid]
% Activity (Ex. 25 Reference Compound): 117.38%

SMILES: Cc1cc2cccc(COc3ccc4c(c3)CCC4CC(=O)O)c2s1 (stereo not drawn) [Example 152, 2-(5-((2-methylbenzo[α]thiophen-7-yl)methoxy)-2,3-dihydro-1H-inden-1-yl)acetic acid]
% Activity (Ex. 25 Reference Compound): 83.81%

SMILES: CC1(C)Cc2cc(F)cc(COc3ccc4c(c3)CCCC4CC(=O)O)c2O1 (stereo not drawn) [Example 153, 2-(6-((5-fluoro-2,2-dimethyl-2,3-dihydrobenzofuran-7-yl)methoxy)-1,2,3,4-tetrahydronaphthalen-1-yl)acetic acid]
% Activity (Ex. 25 Reference Compound): 106.81%

SMILES: CC1(C)Cc2cc(Cl)cc(COc3ccc(C(C)(C)CC(=O)O)cc3)c2O1 [Example 156, 3-(4-((5-chloro-2,2-dimethyl-2,3-dihydrobenzofuran-7-yl)methoxy)phenyl)-3-methylbutanoic acid]
% Activity (Ex. 25 Reference Compound): 148.87%

SMILES: CC(Cc1ccc(OCc2cc(Cl)cc3c2OC2(CCCC2)C3)cc1)C(=O)O (stereo not drawn) [Example 159, 3-(4-((5-chloro-3H-spiro[benzofuran-2,1′-cyclopentane]-7-yl)methoxy)phenyl)-2-methylpropanoic acid]
% Activity (Ex. 25 Reference Compound): 164.79%

SMILES: CC1(C)Cc2cc(F)cc(COc3ccc(CCCC(=O)O)cc3)c2O1 [Example 160, 4-(4-((5-fluoro-2,2-dimethyl-2,3-dihydrobenzofuran-7-yl)methoxy)phenyl)butanoic acid]
% Activity (Ex. 25 Reference Compound): 172.13%

SMILES: CC(Cc1ccc(OCc2cc(F)cc3c2OC2(CCCC2)C3)cc1)C(=O)O (stereo not drawn) [Example 162, 3-(4-((5-fluoro-3H-spiro[benzofuran-2,1′-cyclopentane]-7-yl)methoxy)phenyl)-2-methylpropanoic acid]
% Activity (Ex. 25 Reference Compound): 154.48%

SMILES: O=C(O)C1CC1c1ccc(OCc2cc(F)cc3c2OC2(CCCC2)C3)cc1 (stereo not drawn) [Example 165, 2-(4-((5-fluoro-3H-spiro[benzofuran-2,1′-cyclopentane]-7-yl)methoxy)phenyl)cyclopropanecarboxylic acid]
% Activity (Ex. 25 Reference Compound): 158.08%

SMILES: CC(CCc1ccc(OCc2cc(F)cc3c2OC(C)(C)C3)cc1)C(=O)O (stereo not drawn) [Example 171, 4-(4-((5-fluoro-2,2-dimethyl-2,3-dihydrobenzofuran-7-yl)methoxy)phenyl)-2-methylbutanoic acid]
% Activity (Ex. 25 Reference Compound): 98.97%

SMILES: COc1cc(CCC(=O)O)ccc1OCc1cc(F)cc2c1OC(C)(C)C2 [Example 173, 3-(4-((5-fluoro-2,2-dimethyl-2,3-dihydrobenzofuran-7-yl)methoxy)-3-methoxyphenyl)propanoic acid]
% Activity (Ex. 25 Reference Compound): 159.06%

Further lines, results first:

% Activity (Ex. 25 Reference Compound): 152.44%
SMILES: CC1(C)Cc2cc(F)cc(COc3ccc4c(c3)CC[C@H]4CC(=O)O)c2O1 [Example 175, (S)-2-(5-((5-fluoro-2,2-dimethyl-2,3-dihydrobenzofuran-7-yl)methoxy)-2,3-dihydro-1H-inden-1-yl)acetic acid]

% Activity (Ex. 25 Reference Compound): 138.42%
SMILES: CC1(C)Cc2cc(Cl)cc(COc3ccc4c(c3)CC[C@H]4CC(=O)O)c2O1 [Example 176, (S)-2-(5-((5-chloro-2,2-dimethyl-2,3-dihydrobenzofuran-7-yl)methoxy)-2,3-dihydro-1H-inden-1-yl)acetic acid]

% Activity (Ex. 25 Reference Compound): 106%
SMILES: CC1(C)Cc2cc(F)cc(COc3ccc4c(c3)CC[C@@H]4CC(=O)O)c2O1 [Example 178, (R)-2-(5-((5-fluoro-2,2-dimethyl-2,3-dihydrobenzofuran-7-yl)methoxy)-2,3-dihydro-1H-inden-1-yl)acetic acid]

% Activity (Ex. 25 Reference Compound): 105.44%
SMILES: CC1(C)Cc2cc(Cl)cc(COc3ccc4c(c3)CC[C@@H]4CC(=O)O)c2O1 [Example 179, (R)-2-(5-((5-chloro-2,2-dimethyl-2,3-dihydrobenzofuran-7-yl)methoxy)-2,3-dihydro-1H-inden-1-yl)acetic acid]

% Activity (Ex. 25 Reference Compound): 98.43%
SMILES: CC(CC(=O)O)Cc1ccc(OCc2cc(F)cc3c2OC(C)(C)C3)cc1 (stereo not drawn) [Example 182, 4-(4-((5-fluoro-2,2-dimethyl-2,3-dihydrobenzofuran-7-yl)methoxy)phenyl)-3-methylbutanoic acid]

% Activity (Ex. 25 Reference Compound): 97.04%
SMILES: CC1(C)Cc2cc(F)cc(COc3c(F)cc(CC4CC4C(=O)O)cc3F)c2O1 (stereo not drawn) [Example 184, 2-(3,5-difluoro-4-((5-fluoro-2,2-dimethyl-2,3-dihydrobenzofuran-7-yl)methoxy)benzyl)cyclopropanecarboxylic acid]

% Activity (Ex. 25 Reference Compound): 104.04%
SMILES: CC1(C)Cc2c(COc3ccc4c(c3)CC[C@@H]4CC(=O)O)cc(F)cc2O1 [Example 188, (R)-2-(5-((6-fluoro-2,2-dimethyl-2,3-dihydrobenzofuran-4-yl)methoxy)-2,3-dihydro-1H-inden-1-yl)acetic acid]

% Activity (Ex. 25 Reference Compound): 148.21%
SMILES: COc1cc(OCc2cc(Cl)cc3c2OC2(CCCC2)C3)ccc1CCC(=O)O [Example 194, 3-(4-((5-chloro-3H-spiro[benzofuran-2,1′-cyclopentane]-7-yl)methoxy)-2-methoxyphenyl)propanoic acid]

% Activity (Ex. 25 Reference Compound): 151.44%
SMILES: CC1(C)Cc2cc(F)cc(COc3cc(Cl)c(CCC(=O)O)c(Cl)c3)c2O1 [Example 197, 3-(2,6-dichloro-4-((5-fluoro-2,2-dimethyl-2,3-dihydrobenzofuran-7-yl)methoxy)phenyl)propanoic acid]

% Activity (Ex. 25 Reference Compound): 111.45%
SMILES: Cc1cc(OCc2cc(F)cc3c2OC(C)(C)C3)c(C)cc1CCC(=O)O [Example 206, 3-(4-((5-fluoro-2,2-dimethyl-2,3-dihydrobenzofuran-7-yl)methoxy)-2,5-dimethylphenyl)propanoic acid]

% Activity (Ex. 25 Reference Compound): 147.47%
SMILES: Cc1c(CCC(=O)O)ccc(OCc2cc(F)cc3c2OC(C)(C)C3)c1C [Example 208, 3-(4-((5-fluoro-2,2-dimethyl-2,3-dihydrobenzofuran-7-yl)methoxy)-2,3-dimethylphenyl)propanoic acid]
